Where a name gives a salt, the structure may show the parent alone. Read-outs that look alike come from different tables or passages of the source.
Experiments:
[1] = tested on: Escherichia Coli 7881; experiment: In vitro antibacterial activity, liquid medium dilution (MIC); type: cell-based; conditions: 37° C., read-out: minimum inhibiting concentration (MIC)
Method: (§1) The method used was a dilution of a liquid medium where a series of tubes received the same quantity of a sterile nutritive media and increasing doses of the test compounds were placed therein. Then each tube was seeded with a bacterial strain and was incubated for 24 to 48 hours at 37° C. in an oven. The increasing inhibition was determined by transillumination to determine the minimum inhibiting concentration (MIC in μg/ml) and the results are reported in the following Tables.
(§2) Product A is the crystalline D form of the syn isomer of sodium 3-acetoxymethyl-7-[2-(2-amino-4-thiazolyl)-2-methoxyimino-acetamido]-ceph- 3-eme-4-carboxylate.

[2] = tested on: Escherichia Coli A 223; experiment: as above; type: cell-based; conditions: 37° C., read-out: minimum inhibiting concentration (MIC)
Method: as §1, §2

[3] = tested on: Escherichia Coli T 55 4076; experiment: as above; type: cell-based; conditions: 37° C., read-out: minimum inhibiting concentration (MIC)
Method: as §1, §2

[4] = tested on: Escherichia Coli T 55 4376; experiment: as above; type: cell-based; conditions: 37° C., read-out: minimum inhibiting concentration (MIC)
Method: as §1, §2

[5] = tested on: Klebsiella Pneumoniae COc 229; experiment: as above; type: cell-based; conditions: 37° C., read-out: minimum inhibiting concentration (MIC)
Method: as §1, §2

[6] = tested on: Klebsiella Pneumoniae COc 238; experiment: as above; type: cell-based; conditions: 37° C., read-out: minimum inhibiting concentration (MIC)
Method: as §1, §2

[7] = tested on: Proteus Mirabilis 1816; experiment: as above; type: cell-based; conditions: 37° C., read-out: minimum inhibiting concentration (MIC)
Method: as §1, §2

[8] = tested on: Proteus Mirabilis 3477; experiment: as above; type: cell-based; conditions: 37° C., read-out: minimum inhibiting concentration (MIC)
Method: as §1, §2

[9] = tested on: Proteus Mirabilis 9048; experiment: as above; type: cell-based; conditions: 37° C., read-out: minimum inhibiting concentration (MIC)
Method: as §1, §2

[10] = tested on: Proteus Vulgaris Co 1; experiment: as above; type: cell-based; conditions: 37° C., read-out: minimum inhibiting concentration (MIC)
Method: as §1, §2

[11] = tested on: Proteus Vulgaris Co 4; experiment: as above; type: cell-based; conditions: 37° C., read-out: minimum inhibiting concentration (MIC)
Method: as §1, §2

[12] = tested on: Proteus Vulgaris Du 27; experiment: as above; type: cell-based; conditions: 37° C., read-out: minimum inhibiting concentration (MIC)
Method: as §1, §2

[13] = tested on: Salmonella typhimurium 6478; experiment: as above; type: cell-based; conditions: Salmonella enterica, 37° C., read-out: minimum inhibiting concentration (MIC)
Method: as §1, §2

[14] = tested on: Staphylococcus aureus I H 005; experiment: as above; type: cell-based; conditions: 37° C., read-out: minimum inhibiting concentration (MIC)
Method: as §1, §2

[15] = tested on: Staphylococcus aureus I H 38; experiment: as above; type: cell-based; conditions: 37° C., read-out: minimum inhibiting concentration (MIC)
Method: as §1, §2

[16] = tested on: Staphylococcus aureus I H 41; experiment: as above; type: cell-based; conditions: 37° C., read-out: minimum inhibiting concentration (MIC)
Method: as §1, §2

[17] = tested on: Staphylococcus aureus I H 47; experiment: as above; type: cell-based; conditions: 37° C., read-out: minimum inhibiting concentration (MIC)
Method: as §1, §2

[18] = Stability test, percent of activity remaining on storage; type: physicochemical; conditions: nonsterile air; for % of activity after storage: time 0, closed flask
Method: Product A was placed in a flask containing nonsterile air and it was closed with a rubber stopper. The flask was stored at the temperatures for the times indicated in the following table and the percent of activity remaining was determined.

[19] = Affinity to atmospheric humidity / hygroscopicity; type: physicochemical; conditions: solid

## CO/N=C(\C(=O)NC1C(=O)N2C(C(=O)O)=C(COC(C)=O)CSC12)c1csc(N)n1 (stereo not drawn) [Product A, sodium 3-acetoxymethyl-7-[2-(2-amino-4-thiazolyl)-2-methoxyimino-acetamido]-ceph-3-eme-4-carboxylate]
[1]; COLI7881, 24 H
  MIC: 0.1 µg/mL
[1]; COLI7881, 48 H
  MIC: 0.1 µg/mL
[2]; COLIA223, 24 H
  MIC: 0.1 µg/mL
[2]; COLIA223, 48 H
  MIC: 0.1 µg/mL
[3]; COLIT554076, 24 H
  MIC: 0.05 µg/mL
[3]; COLIT554076, 48 H
  MIC: 0.05 µg/mL
[4]; COLIT554376, 24 H
  MIC: 0.1 µg/mL
[4]; COLIT554376, 48 H
  MIC: 0.1 µg/mL
[5]; 24 H
  MIC: 0.1 µg/mL
[5]; 48 H
  MIC: 0.1 µg/mL
[6]; 24 H
  MIC: 0.2 µg/mL
[6]; 48 H
  MIC: 0.2 µg/mL
[7]; 24 H
  MIC: 0.05 µg/mL
[7]; 48 H
  MIC: 0.05 µg/mL
[8]; 24 H
  MIC: 0.05 µg/mL
[8]; 48 H
  MIC: 0.05 µg/mL
[9]; 24 H
  MIC: 0.02 µg/mL
[9]; 48 H
  MIC: 0.02 µg/mL
[10]; 24 H
  MIC: 0.2 µg/mL
[10]; 48 H
  MIC: 0.4 µg/mL
[11]; 24 H
  MIC: 0.6 µg/mL
[11]; 48 H
  MIC: 0.6 µg/mL
[12]; 24 H
  MIC: ≤ 0.02 µg/mL
[12]; 48 H
  MIC: ≤ 0.02 µg/mL
[13]; 24 H
  MIC: 0.1 µg/mL
[13]; 48 H
  MIC: 0.1 µg/mL
[14]; IH005, 24 H
  MIC: 2 µg/mL
[14]; IH005, 48 H
  MIC: 3 µg/mL
[15]; IH38, 24 H
  MIC: 1 µg/mL
[15]; IH38, 48 H
  MIC: 2 µg/mL
[16]; IH41, 24 H
  MIC: 1 µg/mL
[16]; IH41, 48 H
  MIC: 2 µg/mL
[17]; IH47, 24 H
  MIC: 2 µg/mL
[17]; IH47, 48 H
  MIC: 2 µg/mL
[18]; 50° C., 1.5 months, closed flask, read-out: % of activity after storage
  remaining at 1080 h: 92.5%
[18]; 50° C., 3 months, closed flask, read-out: % of activity after storage
  remaining at 2160 h: 92%
[18]; 50° C.
  % of activity after storage: 97%
[18]; 80° C., 2 weeks, closed flask, read-out: % of activity after storage
  remaining at 336 h: 81.5%
[18]; 80° C., 160 hours, closed flask, read-out: % of activity after storage
  remaining at 160 h: 89.5%
[18]; 80° C.
  % of activity after storage: 97%
[19]; listed as crystalline D form
  affinity to atmospheric humidity / hygroscopicity: low affinity to atmospheric humidity

## CO/N=C(\C(=O)NC1C(=O)N2C(C(=O)O)=C(COC(C)=O)CSC12)c1csc(N)n1 (stereo not drawn) [sodium salt not containing methanol, sodium 3-acetoxymethyl-7-[2-(2-amino-4-thiazolyl)-2-methoxyimino-acetamido]-ceph-3-eme-4-carboxylate]
[19]
  affinity to atmospheric humidity / hygroscopicity: hygroscopic

Source: patent publication US4224371A, “Sodium 3-acetoxylmethyl-7-[2-(2-amino-4-thiazolyl)-2-methoxyimino-acetamido]-ce ph-3-eme-4-carboxylate” (priority 1977, dated 1980)
